Data: patent publication US20130005721A1, “INDOLIZINE INHIBITORS OF 5-LIPOXYGENASE” (PANMIRA PHARMACEUTICALS, LLC, priority 2009, published 2013)

Test system: human leukocytes (LTB4 production, calcium ionophore stimulated)
Assay: Human Leukocyte LTB4 Inhibition Assay
Format: cell-based
Details: LTB4 by ELISA, read-out: LTB4 HLA IC50
Description: Human Leukocyte LTB4 Inhibition Assay
A non-limiting example of a human leukocyte inhibition assay is as follows; Blood was drawn from consenting human volunteers into heparanized tubes and 3% dextran 0.9% saline ⅓ rd volume added. After sedimentation of red blood cells a hypotonic lysis of remaining red blood cells was performed and leukocytes sedimented at 1200 rpm. The pellet was resuspended at 1.25×10^5 cells/ml and aliquoted into wells containing 1 μL 100% DMSO (vehicle) or 2.5 μL drug in 100% DMSO. Samples were incubated for 5 minutes at 37° C. and 2 μL calcium ionophore […] (from a 50 mM DMSO stock diluted just prior to the assay in Hanks balanced salt solution (Invitrogen)) to 1.25 mM) was added, solutions mixed and incubated for 30 minutes at 37° C. Samples were centrifuged at 1,200 rpm (−200×g) for 10 minutes at 4° C., plasma removed and a 1:4 dilution assayed for LTB4 concentration using ELISA (Assay Designs). Drug concentrations to achieve 50% inhibition (IC50's) of vehicle LTB4 were determined by nonlinear regression (Graphpad Prism) of % inhibition versus log drug concentration.

IC50 [nM] | SMILES
< 300 | CCC(O)(c1cn(Cc2ccn3c(-c4ccc(F)cc4)c(C#N)cc3c2)nn1)C(F)(F)F (centres unmarked) [Compound 1-22, 3-(4-Fluoro-phenyl)-7-[4-(1-hydroxy-1-trifluoromethyl-propyl)-[1,2,3]triazol-1-ylmethyl]-indolizine-2-carbonitrile]

Same assay, conditions: Leukocyte, LTB4 by ELISA, read-out: LTB4 HLA IC50

SMILES | IC50 [nM]
CCC(O)(c1cn(Cc2ccn3c(-c4ccc(OC)nc4)c(C(N)=O)c(C(=O)C(F)(F)F)c3c2)nn1)C(F)(F)F (single isomer, unassigned) [Compound 1-82, 7-[4-(1-Hydroxy-1-trifluoromethyl-propyl)-[1,2,3]triazol-1-ylmethyl]-3-(6-methoxy-pyridin-3-yl)-1-(2,2,2-trifluoro-acetyl)-indolizine-2-carboxylic acid amide] | > 1000
CCC(OC(=O)c1ccc([N+](=O)[O-])cc1)(c1cn(Cc2ccn3c(-c4ccc(OC)nc4)c(C(N)=O)cc3c2)nn1)C(F)(F)F (single isomer, unassigned) [Compound 1-83, 4-Nitro-benzoic acid 1-{1-[2-carbamoyl-3-(6-methoxy-pyridin-3-yl)-indolizin-7-ylmethyl]-1H-[1,2,3]triazol-4-yl}-1-trifluoromethyl-propyl ester] | 300 to 1000
CCOC(=O)c1c(C(=O)C(F)(F)F)c2cc(Cn3cc(C(CC)(OC(=O)c4ccc([N+](=O)[O-])cc4)C(F)(F)F)nn3)ccn2c1-c1ccc(OC)nc1 (single isomer, unassigned) [Compound 1-84, 3-(6-Methoxy-pyridin-3-yl)-7-{4-[1-(4-nitro-benzoyloxy)-1-trifluoromethyl-propyl]-[1,2,3]triazol-1-ylmethyl}-1-(2,2,2-trifluoro-acetyl)-indolizine-2-carboxylic acid ethyl ester] | 300 to 1000
CCOC(=O)c1cc2cc(Cn3cc(C(CC)(OC(=O)c4ccc([N+](=O)[O-])cc4)C(F)(F)F)nn3)ccn2c1-c1ccc(OC)nc1 (single isomer, unassigned) [Compound 1-85, 3-(6-Methoxy-pyridin-3-yl)-7-{4-[1-(4-nitro-benzoyloxy)-1-trifluoromethyl-propyl]-[1,2,3]triazol-1-ylmethyl}-indolizine-2-carboxylic acid ethyl ester] | 300 to 1000
CCC(O)(c1cn(Cc2ccn3c(Cl)c(C(N)=O)cc3c2)nn1)C(F)(F)F (single isomer, unassigned) [Compound 1-89, 3-Chloro-7-[4-(1-hydroxy-1-trifluoromethyl-propyl)-[1,2,3]triazol-1-ylmethyl]-indolizine-2-carboxylic acid amide] | > 1000
CCC(O)(c1cnc(Sc2ccn3cc(C(=O)O)cc3c2)s1)C(F)(F)F (centres unmarked) [Compound 1-2, 7-[5-(1-Hydroxy-1-trifluoromethyl-propyl)-thiazol-2-ylsulfanyl]-indolizine-2-carboxylic acid] | > 1000
CCC(O)(c1cn(Cc2ccn3c(-c4ccc(F)cc4)c(C(=O)O)cc3c2)nn1)C(F)(F)F (centres unmarked) [Compound 1-5, 3-(4-Fluoro-phenyl)-7-[4-(1-hydroxy-1-trifluoromethyl-propyl)-[1,2,3]triazol-1-ylmethyl]-indolizine-2-carboxylic acid] | 300 to 1000
CCOC(=O)c1nc2cc(Cn3cc(C(O)(CC)C(F)(F)F)nn3)ccn2c1-c1ccc(F)cc1 (centres unmarked) [Compound 1-13, 3-(4-Fluoro-phenyl)-7-[4-(1-hydroxy-1-trifluoromethyl-propyl)-[1,2,3]triazol-1-ylmethyl]-imidazo[1,2-a]pyridine-2-carboxylic acid ethyl ester] | < 300
CCC(O)(c1cn(Cc2ccn3c(-c4ccc(F)cc4)c(C(N)=O)nc3c2)nn1)C(F)(F)F (centres unmarked) [Compound 1-14, 3-(4-Fluoro-phenyl)-7-[4-(1-hydroxy-1-trifluoromethyl-propyl)-[1,2,3]triazol-1-ylmethyl]-imidazo[1,2-a]pyridine-2-carboxylic acid amide] | 300 to 1000
CCOC(=O)c1c(Br)c2cc(CNc3nnc(C(O)(CC)C(F)(F)F)o3)ccn2c1-c1ccc(F)cc1 (centres unmarked) [Compound 1-15, 1-Bromo-3-(4-fluoro-phenyl)-7-{[5-(1-hydroxy-1-trifluoromethyl-propyl)-[1,3,4]oxadiazol-2-ylamino]-methyl}-indolizine-2-carboxylic acid ethyl ester] | < 300
CCC(O)(c1cn(Cc2ccn3c(-c4ccc(F)cc4)c(C#N)cc3c2)nn1)C(F)(F)F (centres unmarked) [Compound 1-16, 3-(4-Fluoro-phenyl)-7-[4-(1-hydroxy-1-trifluoromethyl-propyl)-[1,2,3]triazol-1-ylmethyl]-indolizine-2-carbonitrile] | < 300
CCC(O)(c1nnc(NCc2ccn3c(-c4ccc(F)cc4)c(C(N)=O)c(Br)c3c2)o1)C(F)(F)F (centres unmarked) [Compound 1-17, 1-Bromo-3-(4-fluoro-phenyl)-7-{[5-(1-hydroxy-1-trifluoromethyl-propyl)-[1,3,4]oxadiazol-2-ylamino]-methyl}-indolizine-2-carboxylic acid amide] | < 300
CCC(O)(c1nnc(NCc2ccn3c(-c4ccc(F)cc4)c(C#N)c(Br)c3c2)o1)C(F)(F)F (centres unmarked) [Compound 1-18, 1-Bromo-3-(4-fluoro-phenyl)-7-{[5-(1-hydroxy-1-trifluoromethyl-propyl)-[1,3,4]oxadiazol-2-ylamino]-methyl}-indolizine-2-carbonitrile] | < 300
CCC(O)(c1nnc(NCc2ccn3c(-c4ccc(F)cc4)c(C(N)=O)cc3c2)o1)C(F)(F)F (centres unmarked) [Compound 1-19, 3-(4-Fluoro-phenyl)-7-{[5-(1-hydroxy-1-trifluoromethyl-propyl)-[1,3,4]oxadiazol-2-ylamino]-methyl}-indolizine-2-carboxylic acid amide] | < 300
CCC(O)(c1cn(Cc2ccn3c(-c4ccc(F)cc4)c(-c4nn[nH]n4)cc3c2)nn1)C(F)(F)F (centres unmarked) [Compound 1-23, 1,1,1-Trifluoro-2-{1-[3-(4-fluoro-phenyl)-2-(2H-tetrazol-5-yl)-indolizin-7-ylmethyl]-1H-[1,2,3]triazol-4-yl}-butan-2-ol] | > 1000

Other lines, results leading:

IC50 [nM] | SMILES
< 300 | CCOC(=O)c1cc2cc(Cn3cc(C(CC)(OC(=O)c4ccc([N+](=O)[O-])cc4)C(F)(F)F)nn3)ccn2c1 (single isomer, unassigned) [Compound 1-86, 7-{4-[1-(4-Nitro-benzoyloxy)-1-trifluoromethyl-propyl]-[1,2,3]triazol-1-ylmethyl}-indolizine-2-carboxylic acid ethyl ester]
< 300 | CCOC(=O)c1cc2cc(Cn3cc(C(O)(CC)C(F)(F)F)nn3)ccn2c1Cl (single isomer, unassigned) [Compound 1-87, 3-Chloro-7-[4-(1-hydroxy-1-trifluoromethyl-propyl)-[1,2,3]triazol-1-ylmethyl]-indolizine-2-carboxylic acid ethyl ester]
< 300 | CCC(O)(c1cn(Cc2ccn3c(Cl)c(C#N)cc3c2)nn1)C(F)(F)F (single isomer, unassigned) [Compound 1-88, 3-Chloro-7-[4-(1-hydroxy-1-trifluoromethyl-propyl)-[1,2,3]triazol-1-ylmethyl]-indolizine-2-carbonitrile]
< 300 | CCOC(=O)c1cc2cc(Sc3ncc(C(O)(CC)C(F)(F)F)s3)ccn2c1 (centres unmarked) [Compound 1-1, 7-[5-(1-Hydroxy-1-trifluoromethyl-propyl)-thiazol-2-ylsulfanyl]-indolizine-2-carboxylic acid ethyl ester]
< 300 | CCOC(=O)c1cc2cc(Cn3ncc(C(O)(CC)C(F)(F)F)n3)ccn2c1-c1ccc(F)cc1 (centres unmarked) [Compound 1-3, 3-(4-Fluoro-phenyl)-7-[4-(1-hydroxy-1-trifluoromethyl-propyl)-[1,2,3]triazol-2-ylmethyl]-indolizine-2-carboxylic acid ethyl ester]
< 300 | CCOC(=O)c1cc2cc(Cn3cc(C(O)(CC)C(F)(F)F)nn3)ccn2c1-c1ccc(F)cc1 (centres unmarked) [Compound 1-4, 3-(4-Fluoro-phenyl)-7-[4-(1-hydroxy-1-trifluoromethyl-propyl)-[1,2,3]triazol-1-ylmethyl]-indolizine-2-carboxylic acid ethyl ester]
< 300 | CCC(O)(c1cn(Cc2ccn3c(-c4ccc(F)cc4)c(C(N)=O)cc3c2)nn1)C(F)(F)F (centres unmarked) [Compound 1-6, 3-(4-Fluoro-phenyl)-7-[4-(1-hydroxy-1-trifluoromethyl-propyl)-[1,2,3]triazol-1-ylmethyl]-indolizine-2-carboxylic acid amide]
< 300 | CCC(O)(c1cn(Cc2ccn3c(-c4ccc(F)cc4)c(C(C)(C)O)cc3c2)nn1)C(F)(F)F (centres unmarked) [Compound 1-7, 1,1,1-Trifluoro-2-{1-[3-(4fluoro-phenyl)-2-(1-hydroxy-1-methyl-ethyl)-indolizin-7-ylmethyl]-1H-[1,2,3]triazol-4-yl}-butan-2-ol]
< 300 | CCOC(=O)c1cc2cc(CNc3nnc(C(O)(CC)C(F)(F)F)o3)ccn2c1-c1ccc(F)cc1 (centres unmarked) [Compound 1-11, 3-(4-Fluoro-phenyl)-7-{[5-(1-hydroxy-1-trifluoromethyl-propyl)-[1,3,4]oxadiazol-2-ylamino]-methyl}-indolizine-2-carboxylic acid ethyl ester]
< 300 | CCOC(=O)c1nc2cc(CNc3nnc(C(O)(CC)C(F)(F)F)o3)ccn2c1-c1ccccc1 (centres unmarked) [Compound 1-12, 7-{[5-(1-Hydroxy-1-trifluoromethyl-propyl)-[1,3,4]oxadiazol-2-ylamino]-methyl}-3-phenyl-imidazo[1,2-a]pyridine-2-carboxylic acid ethyl ester]
